The values that follow come from patent publication US20060148744A1, “Use of cis-epoxyeicosantrienoic acids and inhibitors of soluble epoxide hydrolase to reduce damage from stroke” (priority 2004, published 2006).

Series [1] addresses T1, sEH (Homo sapiens, UniProt P34913).
T1 sequence (P34913 1-555): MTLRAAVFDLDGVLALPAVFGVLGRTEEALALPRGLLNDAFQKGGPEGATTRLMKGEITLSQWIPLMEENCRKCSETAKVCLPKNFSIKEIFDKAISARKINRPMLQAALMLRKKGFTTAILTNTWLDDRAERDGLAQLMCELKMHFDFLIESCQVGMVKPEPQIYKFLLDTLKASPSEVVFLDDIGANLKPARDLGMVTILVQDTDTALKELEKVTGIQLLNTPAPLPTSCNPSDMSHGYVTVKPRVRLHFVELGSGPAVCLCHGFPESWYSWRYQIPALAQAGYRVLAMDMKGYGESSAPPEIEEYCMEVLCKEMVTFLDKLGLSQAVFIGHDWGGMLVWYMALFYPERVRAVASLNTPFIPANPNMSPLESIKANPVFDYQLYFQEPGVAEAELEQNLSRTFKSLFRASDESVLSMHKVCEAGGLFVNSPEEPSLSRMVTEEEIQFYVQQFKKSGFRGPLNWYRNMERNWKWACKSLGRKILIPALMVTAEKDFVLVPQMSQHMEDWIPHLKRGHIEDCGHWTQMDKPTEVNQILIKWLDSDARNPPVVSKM
The experiment in a line: Inhibition of sEH. Format: biochemical. The note with it: result in words. The source says: Any of a number of standard assays for determining epoxide hydrolase activity can be used to determine inhibition of sEH. For example, suitable assays are described in Gill, et al., Anal Biochem 131, 273-282 (1983); and Borhan, et al., Analytical Biochemistry 231, 188-200 (1995)). Suitable in vitro assays are described in Zeldin et al., J Biol. Chem. 268:6402-6407 (1993). Suitable in vivo assays are described in Zeldin et al., Arch Biochem Biophys 330:87-96 (1996). […]
The enzyme also can be detected based on the binding of specific ligands to the catalytic site which either immobilize the enzyme or label it with a probe such as dansyl, fluoracein, luciferase, green fluorescent protein or other reagent. […] The enzyme also can be detected based on the generation of fluorescent products following the hydrolysis of the epoxide. […]

The nature of series [2]: Metabolic stability. The note with it: result in words. The format is in vitro ADME.
The conditions of series [3]: rat, in vivo, po. How it is done:
The sEH inhibitor, adamantyl dodecanoic acid (AUDA) was administered orally to six-week-old male stroke prone spontaneously hypertensive rats (“SPSHR”).

Series [4] concerns stroke prone spontaneously hypertensive rats. Put plainly: Cerebral ischemia by middle cerebral artery occlusion (intralumenal suture), infarct size by TTC staining. Format: in vivo, rat. The settings on record: SPSHR, six weeks oral treatment, six hours post MCA occlusion, n=6, p<0.01 vs. vehicle. How it is done: After six weeks of treatment, cerebral ischemia was induced by middle cerebral artery occlusion using the intralumenal suture occlusion technique. Rats were anesthetized with sodium pentobarbital (50 mg/kg IP) and body temperature was maintained at 37° C. using a microprocessor-controlled heating pad and a rectal temperature probe. The skin over the skull was retracted and the bone was thinned using a low speed drill. A laser Doppler flow probe (Perimed) was glued to the skull 2 mm posterior and 6 mm lateral to the bregma to allow for confirmation of middle cerebral artery (“MCA”) occlusion. The MCA was then occluded using the thread occlusion model as described by Zea Longa et al. “Reversible middle cerebral artery occlusion without craniotomy in rats”, Stroke 20:84-91 (1989). The common carotid artery was exposed by a midline incision and the pterygopalatine artery was ligated and the branches of the external carotid artery were cauterized. A 3-0 monofilament thread with a rounded tip was introduced into the external carotid artery in a retrograde fashion. […] Digital images of the brain slices were produced and the infarct volume was analyzed using a computerized image analysis system (NIH image, version 1.55). The percent of the hemisphere infarcted was measured using the Swanson equation to account for cerebral edema. […]

Series [5] can be described thus: Systolic blood pressure in treated SPSHR. The format is in vivo, rat. The settings on record: SPSHR treated with AUDA. The text has this:
This difference in infarct size occurred independently of changes in systolic blood pressure (193±2 vs. 197±6 mm Hg, AUDA vs. vehicle).

Regarding `CCCCCCCCCCCCNC(=O)NC12CC3CC(CC(C3)C1)C2` [ADU, N-Adamantyl-N′-dodecyl urea], the “activity as an inhibitor of sEH” value in series [1] is reported as “particularly high activity on sEH”. For the same compound, the metabolic stability entry in series [2] is reported as “metabolically stable”.

Regarding adamantyl dodecanoic acid [AUDA], in series [3], the “Plasma levels of AUDA at the end of the treatment period” value worked out at 5.03 ± 0.32 ng/mL and the “urinary AUDA excretion rate” value was found to be 111.6 ± 24.4 ng/day. Moreover, the “% hemisphere infarcted” value in series [4] was found to be 35.9±3.83 % hemisphere infarcted. Besides, in series [5], the systolic blood pressure stood at 193±2 mm Hg.
